# Measured values as given in patent US20230041563A1, “N-(1,3,4-OXADIAZOL-2-YL)ARYLCARBOXAMIDES OR SALTS THEREOF, PREPARATION METHODS, HERBICIDAL COMPOSITIONS AND USES THEREOF” (priority 2018, published 2023).
# Like-named read-outs stand apart in the source and are kept apart here.
# Tested on: weeds
# Assay: Actual control effects and combined effects of mixtures of active ingredients (i) and (ii), stem-leaf treatment, Gowing method
# Type: in vivo
# Protocol: According to the actual control effect and the property of the herbicides, the balance of the formula and other factors, the optimal ratio was determined. In the calculation formula: X represents the fresh weight inhibition rate when the active ingredient (i) is used in an amount of P; and Y represents the fresh weight inhibition rate when the active ingredient (ii) is used in an amount of Q. The statistical results are shown in Tables 9-11 below.
# [1] = 480 h, Echinochloa phyllopogon, (ii) 0.6 g a.i./mu, 20 days, read-out: Control effect of (ii) alone at corresponding dose
# [2] = 480 h, Echinochloa phyllopogon, (ii) 3 g a.i./mu, stem-leaf treatment, 20 days, read-out: Control effect of (ii) alone at corresponding dose
# [3] = Echinochloa phyllopogon, (ii) 3 g a.i./mu, 20 days
# [4] = Monochoria vaginalis, (ii) 3 g a.i./mu, 20 days
# [5] = Pontederia vaginalis, 480 h, read-out: Control effect of (ii) alone at corresponding dose
# [6] = Monochoria vaginalis, (ii) 1 g a.i./mu, 20 days
# [7] = Monochoria vaginalis, (ii) 1 g a.i./mu, stem-leaf treatment, 20 days
# [8] = 480 h, Echinochloa phyllopogon, (ii) 0.6 g a.i./mu, stem-leaf treatment, 20 days, read-out: Control effect of (ii) alone at corresponding dose
# [9] = Echinochloa phyllopogon, (ii) 0.6 g a.i./mu, 20 days
# [10] = 480 h, Echinochloa phyllopogon, (ii) 15 g a.i./mu, stem-leaf treatment, 20 days, read-out: Control effect of (ii) alone at corresponding dose
# [11] = Echinochloa phyllopogon, (ii) 15 g a.i./mu, 20 days
# [12] = Echinochloa phyllopogon, (ii) 8 g a.i./mu, 20 days
# [13] = Pontederia vaginalis, 480 h, Monochoria vaginalis, (ii) 3 g a.i./mu, stem-leaf treatment, 20 days, read-out: Control effect of (ii) alone at corresponding dose
# [14] = Pontederia vaginalis, 480 h, Monochoria vaginalis, (ii) 1 g a.i./mu, stem-leaf treatment, 20 days, read-out: Control effect of (ii) alone at corresponding dose
# [15] = Monochoria vaginalis, (ii) 3 g a.i./mu, stem-leaf treatment, 20 days
# [16] = Echinochloa phyllopogon, (ii) 3 g a.i./mu, stem-leaf treatment, 20 days
# [17] = Echinochloa phyllopogon, (ii) 0.6 g a.i./mu, stem-leaf treatment, 20 days
structure (smiles),measurement,setting,value
CSc1nnc(C(C)(C)C)c(=O)n1N [Metribuzin],pest or weed control at 9 g/ha,[1],9.1%
same,pest or weed control at 45 g/ha,[2],32.3%
same,Control effect of (ii) alone at corresponding dose,[3],32.3%
CCCOP(=S)(OCCC)SCC(=O)N1CCCCC1C (centres unmarked) [Piperophos],Control effect of (ii) alone at corresponding dose,[4],9.9%
same,pest or weed control at 45 g/ha,[5],9.9%
same,pest or weed control at 450 g/ha,[5],41.2%
COc1nc(OC)nc(C(=O)c2cccc(F)c2N(C)S(=O)(=O)C(F)F)n1 [Triafamone],Control effect of (ii) alone at corresponding dose,"Monochoria vaginalis, (ii) 0.5 g a.i./mu, 20 days",16.3%
same,Control effect of (ii) alone at corresponding dose,"Monochoria vaginalis, (ii) 0.5 g a.i./mu, stem-leaf treatment, 20 days",16.3%
same,Control effect of (ii) alone at corresponding dose,[6],29.6%
same,Control effect of (ii) alone at corresponding dose,[7],29.6%
CC1=C(c2ccccc2)C(=O)N(C(C)(C)c2cc(Cl)cc(Cl)c2)CO1 [Oxaziclomefone],pest or weed control at 9 g/ha,[8],12.5%
same,pest or weed control at 15 g/ha,"480 h, Echinochloa phyllopogon, (ii) 1 g a.i./mu, stem-leaf treatment, 20 days, read-out: Control effect of (ii) alone at corresponding dose",18.7%
same,Control effect of (ii) alone at corresponding dose,[9],12.5%
same,Control effect of (ii) alone at corresponding dose,"Echinochloa phyllopogon, (ii) 1 g a.i./mu, 20 days",18.7%
CCN(CC)C(=O)SCc1ccc(Cl)cc1 [Benthiocarb],Control effect of (ii) alone at corresponding dose,"Cyperus difformis, (ii) 3 g a.i./mu, 20 days",15.2%
same,Control effect of (ii) alone at corresponding dose,"Cyperus difformis, (ii) 3 g a.i./mu, stem-leaf treatment, 20 days",15.2%
same,Control effect of (ii) alone at corresponding dose,"Cyperus difformis, (ii) 30 g a.i./mu, 20 days",50.3%
CCNc1nc(Cl)nc(NC(C)(C)C)n1 [Terbuthylazine],pest or weed control at 9 g/ha,[1],0.95%
same,pest or weed control at […],[10],18.6%
same,Control effect of (ii) alone at corresponding dose,[11],18.6%
CCOC(=O)C(Cl)Cc1cc(-n2nc(C)n(C(F)F)c2=O)c(F)cc1Cl (centres unmarked) [Carfentrazone-ethyl],pest or weed control at 3 g/ha,"480 h, Echinochloa phyllopogon, (ii) 0.2 g a.i./mu, stem-leaf treatment, 20 days, read-out: Control effect of (ii) alone at corresponding dose",5.3%
same,pest or weed control at 120 g/ha,"480 h, Echinochloa phyllopogon, (ii) 8 g a.i./mu, stem-leaf treatment, 20 days, read-out: Control effect of (ii) alone at corresponding dose",73.6%
same,Control effect of (ii) alone at corresponding dose,"Echinochloa phyllopogon, (ii) 0.2 g a.i./mu, 20 days",5.3%
same,Control effect of (ii) alone at corresponding dose,[12],73.6%
CC(C)N1C(=O)c2ccccc2NS1(=O)=O [Bentazone],pest or weed control at 27 g/ha,"480 h, Cyperus difformis, (ii) 1.8 g a.i./mu, 20 days, read-out: Control effect of (ii) alone at corresponding dose",18.2%
same,pest or weed control at 135 g/ha,"480 h, Cyperus difformis, (ii) 9 g a.i./mu, stem-leaf treatment, 20 days, read-out: Control effect of (ii) alone at corresponding dose",40.4%
same,Control effect of (ii) alone at corresponding dose,"Cyperus difformis, (ii) 9 g a.i./mu, 20 days",40.4%
Cc1ccc(NC(=O)N(C)C)cc1Cl [Chlortoluron],pest or weed control at 9 g/ha,[8],18.3%
same,pest or weed control at […],[10],57.6%
same,Control effect of (ii) alone at corresponding dose,[9],18.3%
same,Control effect of (ii) alone at corresponding dose,[11],57.6%
Nc1c(Cl)c(F)nc(OCC(=O)O)c1Cl [Fluroxypyr],Control effect of (ii) alone at corresponding dose,[4],60.3%
same,pest or weed control at 45 g/ha,[13],60.3%
same,pest or weed control at 60 g/ha,"Pontederia vaginalis, 480 h, Monochoria vaginalis, (ii) 4 g a.i./mu, 20 days, read-out: Control effect of (ii) alone at corresponding dose",70.4%
same,pest or weed control at 75 g/ha,"Pontederia vaginalis, 480 h, Monochoria vaginalis, (ii) 5 g a.i./mu, stem-leaf treatment, 20 days, read-out: Control effect of (ii) alone at corresponding dose",73.4%
O=C(O)c1nc(Cl)ccc1Cl [Clopyralid],Control effect of (ii) alone at corresponding dose,[6],49.6%
same,pest or weed control at 15 g/ha,[14],49.6%
same,pest or weed control at 18 g/ha,"Pontederia vaginalis, 480 h, Monochoria vaginalis, (ii) 1.2 g a.i./mu, 20 days, read-out: Control effect of (ii) alone at corresponding dose",56.3%
CCCOCCN(C(=O)CCl)c1c(CC)cccc1CC [Pretilachlor],pest or weed control at 45 g/ha,[2],15.2%
same,pest or weed control at […],[10],43.2%
same,Control effect of (ii) alone at corresponding dose,[3],15.2%
same,Control effect of (ii) alone at corresponding dose,[11],43.2%
CCN(C(=O)n1nnn(-c2ccccc2Cl)c1=O)C1CCCCC1 [Fentrazamide],Control effect of (ii) alone at corresponding dose,[4],30.2%
same,pest or weed control at […],"Pontederia vaginalis, 480 h, Monochoria vaginalis, (ii) 1.5 g a.i./mu, 20 days, read-out: Control effect of (ii) alone at corresponding dose",18.3%
same,pest or weed control at 45 g/ha,[13],30.2%
CCC(C)n1c(=O)[nH]c(C)c(Br)c1=O (centres unmarked) [Bromacil],pest or weed control at 45 g/ha,[2],12.8%
same,pest or weed control at 450 g/ha,"480 h, Echinochloa phyllopogon, (ii) 30 g a.i./mu, 20 days, read-out: Control effect of (ii) alone at corresponding dose",59.7%
same,Control effect of (ii) alone at corresponding dose,[3],12.8%
CC(C)c1nn(C(=O)NC(C)(C)C)c(=O)n1N [Amicarbazone],Control effect of (ii) alone at corresponding dose,[4],23.3%
same,Control effect of (ii) alone at corresponding dose,[15],23.3%
same,Control effect of (ii) alone at corresponding dose,"Monochoria vaginalis, (ii) 10 g a.i./mu, 20 days",51.6%
same,Control effect of (ii) alone at corresponding dose,"Monochoria vaginalis, (ii) 10 g a.i./mu, stem-leaf treatment, 20 days",51.6%
CS(=O)(=O)c1ccc(C(=O)C2=C(Sc3ccccc3)C3CCC(C3)C2=O)c(Cl)c1 (centres unmarked) [Benzobicylon],Control effect of (ii) alone at corresponding dose,"Leptochloa chinensis, (ii) 3 g a.i./mu, 20 days",26.8%
same,Control effect of (ii) alone at corresponding dose,"Leptochloa chinensis, (ii) 3 g a.i./mu, stem-leaf treatment, 20 days",26.8%
same,Control effect of (ii) alone at corresponding dose,"Leptochloa chinensis, (ii) 15 g a.i./mu, 20 days",68.2%
same,Control effect of (ii) alone at corresponding dose,"Leptochloa chinensis, (ii) 15 g a.i./mu, stem-leaf treatment, 20 days",68.2%
O=C1C(Cl)C(CCl)CN1c1cccc(C(F)(F)F)c1 (centres unmarked) [Fluorochloridone],Control effect of (ii) alone at corresponding dose,[3],9.1%
same,Control effect of (ii) alone at corresponding dose,[16],9.1%
same,Control effect of (ii) alone at corresponding dose,"Echinochloa phyllopogon, (ii) 30 g a.i./mu, 20 days",52.3%
CCOC(=O)c1cnn(C)c1S(=O)(=O)NC(=O)Nc1nc(OC)cc(OC)n1 [Pyrazosulfuron-ethyl],Control effect of (ii) alone at corresponding dose,[6],75.6%
same,pest or weed control at 9 g/ha,"Pontederia vaginalis, 480 h, Monochoria vaginalis, (ii) 0.6 g a.i./mu, 20 days, read-out: Control effect of (ii) alone at corresponding dose",54.5%
same,pest or weed control at 15 g/ha,[14],75.6%
COc1cc(OC)nc(NC(=O)NS(=O)(=O)c2c(C3=NOCC(C)O3)c(Cl)nn2C)n1 (centres unmarked) [Metazosulfuron],Control effect of (ii) alone at corresponding dose,[6],25.6%
same,Control effect of (ii) alone at corresponding dose,[7],25.6%
same,Control effect of (ii) alone at corresponding dose,"Monochoria vaginalis, (ii) 1.2 g a.i./mu, 20 days",30.3%
Cc1ccccc1CO[C@@H]1C[C@@]2(C(C)C)CC[C@]1(C)O2 (racemic) [Cinmethylin],pest or weed control at 45 g/ha,[2],13.2%
same,pest or weed control at […],"480 h, Echinochloa phyllopogon, (ii) 15 g a.i./mu, 20 days, read-out: Control effect of (ii) alone at corresponding dose",54.5%
same,Control effect of (ii) alone at corresponding dose,[3],13.2%
Cc1cc(Cl)ccc1OCC(=O)O [MCPA],Control effect of (ii) alone at corresponding dose,[4],28.2%
same,Control effect of (ii) alone at corresponding dose,[15],28.2%
COc1c(Cl)ccc(-c2nc(C(=O)OCc3ccccc3)c(Cl)c(N)c2F)c1F [Florpyrauxifen-benzyl],Control effect of (ii) alone at corresponding dose,[9],21.5%
same,Control effect of (ii) alone at corresponding dose,[17],21.5%
same,Control effect of (ii) alone at corresponding dose,[3],70.5%
same,Control effect of (ii) alone at corresponding dose,[16],70.5%
Cc1nn(C)cc1C(=O)Oc1c(C(=O)c2ccc(C(F)(F)F)cc2S(C)(=O)=O)c(C)nn1C [Shuangzuocaotong],Control effect of (ii) alone at corresponding dose,"Digitaria sanguinalis, (ii) 8 g a.i./mu, stem-leaf treatment, 20 days",75.1%
same,Control effect of (ii) alone at corresponding dose,[9],7.8%
same,Control effect of (ii) alone at corresponding dose,[17],7.8%
same,Control effect of (ii) alone at corresponding dose,[12],70.9%
same,Control effect of (ii) alone at corresponding dose,"Echinochloa phyllopogon, (ii) 8 g a.i./mu, stem-leaf treatment, 20 days",70.9%
CC(C)c1ccc(NC(=O)N(C)C)cc1 [Isoproturon],pest or weed control at 9 g/ha,[8],20.3%
same,pest or weed control at 45 g/ha,[2],40.2%
same,Control effect of (ii) alone at corresponding dose,[9],20.3%
same,Control effect of (ii) alone at corresponding dose,[3],40.2%
CCNc1nc(Cl)nc(NC(C)C)n1 [Atrazine],pest or weed control at 9 g/ha,[1],2.3%
same,pest or weed control at […],[10],30.6%
same,Control effect of (ii) alone at corresponding dose,[11],30.6%
CS(=O)(=O)c1ccc(C(=O)C2C(=O)CCCC2=O)c(Cl)c1COCC1CCCO1 (centres unmarked) [Tefuryltrione],Control effect of (ii) alone at corresponding dose,"Cyperus difformis, (ii) 1 g a.i./mu, 20 days",37.4%
same,Control effect of (ii) alone at corresponding dose,"Cyperus difformis, (ii) 1 g a.i./mu, stem-leaf treatment, 20 days",37.4%
same,Control effect of (ii) alone at corresponding dose,"Cyperus difformis, (ii) 1.8 g a.i./mu, 20 days",63.2%
CCC(Oc1ccc(F)c(C(F)(F)F)c1)C(=O)NCc1ccccc1 (centres unmarked) [Beflubutamid],Control effect of (ii) alone at corresponding dose,"Monochoria vaginalis, (ii) 1.5 g a.i./mu, 20 days",15.3%
same,Control effect of (ii) alone at corresponding dose,"Monochoria vaginalis, (ii) 5 g a.i./mu, 20 days",40.3%
same,Control effect of (ii) alone at corresponding dose,"Monochoria vaginalis, (ii) 5 g a.i./mu, stem-leaf treatment, 20 days",40.3%
